Experimental data from US12391737B2, “Soluble NPY2 receptor agonists” (Boehringer Ingelheim International GmbH, priority 2020, dated 2025).
pEC50, pKi: −log10 of the molar value.

Experiments:
[1] = target: T1, Human Neuropeptide Y2 Receptor (Homo sapiens, UniProt P49146); test: Radioligand binding competition assay (RLB); conditions: Table 3, 125I-PYY(1-36) competition; read-out: Ki
T1 construct: purchased CHEMICON HTS066M
T1 sequence (P49146 1-381): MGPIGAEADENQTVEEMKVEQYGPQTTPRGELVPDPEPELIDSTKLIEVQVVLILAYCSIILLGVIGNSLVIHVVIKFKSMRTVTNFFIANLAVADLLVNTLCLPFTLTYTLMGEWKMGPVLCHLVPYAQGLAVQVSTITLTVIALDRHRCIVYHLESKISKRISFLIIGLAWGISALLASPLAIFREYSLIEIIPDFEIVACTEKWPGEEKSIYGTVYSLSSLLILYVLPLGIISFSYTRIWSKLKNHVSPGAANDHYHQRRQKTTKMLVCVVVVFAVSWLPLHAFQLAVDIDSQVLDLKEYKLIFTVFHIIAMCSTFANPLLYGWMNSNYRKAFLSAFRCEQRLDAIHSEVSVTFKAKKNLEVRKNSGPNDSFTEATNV
In short: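 IC50 values come from sigmoidal dose-response fits of scintillation counts after peptides competed for radioligand binding at receptor membranes (0.5 μg protein/well). Incubation ran 2 h at room temperature in HEPES buffer, pH 7.4, with Mg2+, Ca2+ and 0.2% ovalbumin.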

[2] = target: T2, human NPY1 receptor (hY1R) (Homo sapiens, UniProt P25929); test: HTRF cAMP Gi assay, hY1R; format: cell-based; conditions: CHO-K1 cells
T2 construct: expressed in transfected cells; host or cells: CHO-K1
T2 sequence (P25929 1-384): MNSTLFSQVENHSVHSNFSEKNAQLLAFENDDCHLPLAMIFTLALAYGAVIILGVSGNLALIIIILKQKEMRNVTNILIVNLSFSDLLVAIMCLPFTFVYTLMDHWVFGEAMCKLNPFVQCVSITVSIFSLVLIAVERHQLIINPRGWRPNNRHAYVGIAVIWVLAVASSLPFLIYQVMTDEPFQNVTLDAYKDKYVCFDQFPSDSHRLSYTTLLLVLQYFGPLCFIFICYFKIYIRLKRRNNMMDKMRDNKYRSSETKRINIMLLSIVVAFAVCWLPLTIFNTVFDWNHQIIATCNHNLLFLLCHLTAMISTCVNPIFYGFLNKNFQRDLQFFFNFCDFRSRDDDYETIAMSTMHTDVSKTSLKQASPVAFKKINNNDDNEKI

[3] = target: T3, human NPY4 receptor (hY4R) (Homo sapiens, UniProt P50391); test: HTRF cAMP Gi assay, hY4R; format: cell-based; conditions: CHO-K1 cells
T3 construct: expressed in transfected cells; host or cells: CHO-K1
T3 sequence (P50391 whole entry): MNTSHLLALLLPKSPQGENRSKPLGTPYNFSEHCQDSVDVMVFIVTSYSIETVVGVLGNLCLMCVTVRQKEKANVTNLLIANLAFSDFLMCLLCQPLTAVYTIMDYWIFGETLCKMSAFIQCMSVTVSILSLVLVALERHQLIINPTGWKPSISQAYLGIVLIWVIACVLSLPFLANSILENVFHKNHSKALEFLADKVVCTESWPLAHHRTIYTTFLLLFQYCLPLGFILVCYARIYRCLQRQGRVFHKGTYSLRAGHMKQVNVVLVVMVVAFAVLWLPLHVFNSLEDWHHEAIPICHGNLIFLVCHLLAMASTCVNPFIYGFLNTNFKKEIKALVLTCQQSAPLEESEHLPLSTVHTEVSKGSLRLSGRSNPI
Method: Briefly, the production of intracellular cAMP will generate a competition between unlabeled cAMP and exogenously added d2-cAMP for anti-cAMP antibodies conjugated to cryptate. CHO-K1 cells stably expressing the human NPY1, NPY2, NPY4 and NPY5 receptors were used with the cells brought to life from a frozen stock immediately before assay performance. 2000 cells per well were applied for all four NPY receptor subtype assays. A 384-well format was used applying a total volume of 20 μl using 5 μl cells, 2.5 μl peptide agonist, 2.5 μl forskolin and 5 μl of each of the fluorophores. […] Concentration-response evaluation of compounds was performed with 11 concentrations of agonist peptides (covering 3 decades). EC50 values were calculated by nonlinear regression using sigmoid concentration-response with variable slope.

[4] = Solubility determination; conditions: for Sol6: pH 6; for Sol7: pH 7
In short: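 Shake-flask style: 10 mg/ml peptide (TFA salt), 0.1 M sodium diphosphate pH 6.4/7.0, 600 rpm, 2 h, RT; filter; dilute 1 mg/ml in 50% MeCN; RP-UPLC, 0–100% B over 2 min, 50 °C. Solubility = sample/control area ratio. Final pH recorded.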

[5] = target: T4, human NPY5 receptor (hY5R) (Homo sapiens, UniProt Q15761); test: HTRF cAMP Gi assay, hY5R
T4 sequence (Q15761 1-445): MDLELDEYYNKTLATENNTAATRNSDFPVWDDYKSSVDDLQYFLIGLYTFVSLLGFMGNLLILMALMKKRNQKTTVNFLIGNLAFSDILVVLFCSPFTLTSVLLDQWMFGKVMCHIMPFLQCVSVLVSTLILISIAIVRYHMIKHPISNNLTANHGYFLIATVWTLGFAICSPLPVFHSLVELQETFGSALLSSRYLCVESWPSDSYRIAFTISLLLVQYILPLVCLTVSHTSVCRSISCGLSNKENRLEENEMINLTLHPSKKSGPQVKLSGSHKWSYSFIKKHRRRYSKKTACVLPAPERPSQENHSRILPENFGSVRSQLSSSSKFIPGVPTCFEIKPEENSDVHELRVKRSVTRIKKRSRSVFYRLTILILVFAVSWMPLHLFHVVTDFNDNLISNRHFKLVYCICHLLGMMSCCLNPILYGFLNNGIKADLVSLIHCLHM

| Compound | pKi [1] | pEC50 [2] | pEC50 [3] | Sol6 [4] [mg/mL] | Sol7 [4] [mg/mL] | pEC50 [5] |
| --- | --- | --- | --- | --- | --- | --- |
| CC(C)CC(=O)N[C@@H](C)C(=O)N1CCC[C@H]1C(=O)N[C@@H](CCC(=O)O)C(=O)N[C@@H](CCCCNC(=O)CCCCCNC(=O)CC[C@H](NC(=O)CCCCCCCCCCCCCCCCC(=O)O)C(=O)O)C(=O)N1CCC[C@H]1C(=O)N[C@@H](CCC(=O)O)C(=O)N[C@@H](C)C(=O)N[C@@H](CC(=O)O)C(=O)N[C@@H](C)C(=O)N[C@H](C(=O)N1CCC[C@H]1C(=O)N[C@@H](CCC(=O)O)C(=O)N[C@@H](CCC(=O)O)C(=O)N[C@@H](CC(C)C)C(=O)N[C@@H](CCC(N)=O)C(=O)N[C@@H](CCCNC(=N)N)C(=O)N[C@@H](Cc1ccc(O)cc1)C(=O)N[C@@H](Cc1ccc(O)cc1)C(=O)N[C@H](C(=O)N[C@@H](C)C(=O)N[C@@H](CC(C)C)C(=O)N[C@@H](CCCNC(=N)N)C(=O)N[C@@H](Cc1c[nH]cn1)C(=O)N[C@@H](Cc1ccc(O)cc1)C(=O)N[C@@H](Cc1ccc(O)cc1)C(=O)N[C@@H](CC(N)=O)C(=O)N[C@@H](Cc1c[nH]c2ccccc12)C(=O)N[C@@H](CC(C)C)C(=O)N[C@H](C(=O)N[C@@H](CCCNC(=N)N)C(=O)N[C@@H](CCC(N)=O)C(=O)N[C@@H](CCCNC(=N)N)C(=O)N[C@@H](Cc1ccc(O)cc1)C(N)=O)[C@@H](C)O)C(C)C)[C@@H](C)O [Compound 136, N{alpha-4}-(3-methylbutanoyl)-N{epsilon-7}-(6-[(4S)-4-carboxy-4-(17-carboxyheptadecanamido)butanamido]hexanoyl)-[4A,7K,9E,10A,13T,18Q,22V,23A,28Y,30W,31L]-hPYY(4-36)] | 8.97 | < 5.30 | < 5.30 | 9.6 | 10.0 | < 5.30 |
| CC[C@H](C)[C@H](NC(=O)[C@H](CCC(=O)O)NC(=O)[C@H](CCC(=O)O)NC(=O)[C@@H]1CCCN1C(=O)[C@H](CO)NC(=O)[C@H](C)NC(=O)[C@H](C)NC(=O)[C@H](CCC(=O)O)NC(=O)[C@H](CCC(=O)O)NC(=O)[C@@H]1CCCN1C(=O)[C@H](CCCCNC(=O)CCCCCNC(=O)CC[C@H](NC(=O)CCCCCCCCCCCCCCCCC(=O)O)C(=O)O)NC(=O)[C@H](CCC(=O)O)NC(=O)[C@@H]1CCCN1C(=O)[C@H](C)NC(=O)CC(C)C)C(=O)N[C@@H](CCC(N)=O)C(=O)N[C@@H](CCCNC(=N)N)C(=O)N[C@@H](Cc1ccc(O)cc1)C(=O)N[C@@H](Cc1ccc(O)cc1)C(=O)N[C@H](C(=O)N[C@@H](CO)C(=O)N[C@@H](CC(C)C)C(=O)N[C@@H](CCCNC(=N)N)C(=O)N[C@@H](Cc1c[nH]cn1)C(=O)N[C@@H](Cc1ccc(O)cc1)C(=O)N[C@@H](Cc1ccc(O)cc1)C(=O)N[C@@H](CC(N)=O)C(=O)N[C@@H](Cc1c[nH]c2ccccc12)C(=O)N[C@@H](CC(C)C)C(=O)N[C@H](C(=O)N[C@@H](CCCNC(=N)N)C(=O)N[C@@H](CCC(N)=O)C(=O)N[C@@H](CCCNC(=N)N)C(=O)N[C@@H](Cc1ccc(O)cc1)C(N)=O)[C@@H](C)O)C(C)C [Compound 150, N{alpha-4}-(3-methylbutanoyl)-N{epsilon-7}-(6-[(4S)-4-carboxy-4-(17-carboxyheptadecanamido)butanamido]hexanoyl)-[4A,7K,9E,11A,17I,18Q,22V,28Y,30W,31L]-hPYY(4-36)] | 8.66 | < 5.30 | < 5.30 | 9.7 | 10.0 | < 5.30 |
| CC[C@H](C)[C@H](NC(=O)[C@H](CCC(=O)O)NC(=O)[C@H](CCC(=O)O)NC(=O)[C@@H]1CCCN1C(=O)[C@@H](NC(=O)[C@H](C)NC(=O)[C@H](CC(=O)O)NC(=O)[C@H](C)NC(=O)[C@H](CCC(=O)O)NC(=O)[C@@H]1CCCN1C(=O)[C@H](CCCCNC(=O)CCCCCNC(=O)CC[C@H](NC(=O)CCCCCCCCCCCCCCCCC(=O)O)C(=O)O)NC(=O)[C@H](CCC(=O)O)NC(=O)[C@@H]1CCCN1C(=O)[C@H](C)NC(=O)CC(C)C)[C@@H](C)O)C(=O)N[C@@H](CCC(N)=O)C(=O)N[C@@H](CCCNC(=N)N)C(=O)N[C@@H](Cc1ccc(O)cc1)C(=O)N[C@@H](Cc1ccc(O)cc1)C(=O)N[C@H](C(=O)N[C@@H](C)C(=O)N[C@@H](CC(C)C)C(=O)N[C@@H](CCCNC(=N)N)C(=O)N[C@@H](Cc1c[nH]cn1)C(=O)N[C@@H](Cc1ccc(O)cc1)C(=O)N[C@@H](Cc1ccc(O)cc1)C(=O)N[C@@H](CC(N)=O)C(=O)N[C@@H](Cc1c[nH]c2ccccc12)C(=O)N[C@@H](CC(C)C)C(=O)N[C@H](C(=O)N[C@@H](CCCNC(=N)N)C(=O)N[C@@H](CCC(N)=O)C(=O)N[C@@H](CCCNC(=N)N)C(=O)N[C@@H](Cc1ccc(O)cc1)C(N)=O)[C@@H](C)O)C(C)C [Compound 184, N{alpha-4}-(3-methylbutanoyl)-N{epsilon-7}-(6-[(4S)-4-carboxy-4-(17-carboxyheptadecanamido)butanamido]hexanoyl)-[4A,7K,9E,10A,13T,17I,18Q,22V,23A,28Y,30W,31L]-hPYY(4-36)] | 9.19 | < 5.30 | < 5.30 | 9.1 | 9.1 | < 5.30 |
| CC[C@H](C)[C@H](NC(=O)[C@H](CCC(=O)O)NC(=O)[C@H](CCC(=O)O)NC(=O)[C@@H]1CCCN1C(=O)[C@H](CO)NC(=O)[C@H](C)NC(=O)[C@H](CCC(=O)O)NC(=O)[C@H](CCC(=O)O)NC(=O)[C@H](CCC(=O)O)NC(=O)[C@@H]1CCCN1C(=O)[C@H](CCCCNC(=O)CCCCCNC(=O)CC[C@H](NC(=O)CCCCCCCCCCCCCCCCC(=O)O)C(=O)O)NC(=O)[C@H](CCC(=O)O)NC(=O)[C@@H]1CCCN1C(=O)[C@H](C)NC(=O)CC(C)C)C(=O)N[C@@H](CCC(N)=O)C(=O)N[C@@H](CCCNC(=N)N)C(=O)N[C@@H](Cc1ccc(O)cc1)C(=O)N[C@@H](Cc1ccc(O)cc1)C(=O)N[C@H](C(=O)N[C@@H](CO)C(=O)N[C@@H](CC(C)C)C(=O)N[C@@H](CCCNC(=N)N)C(=O)N[C@@H](Cc1c[nH]cn1)C(=O)N[C@@H](Cc1ccc(O)cc1)C(=O)N[C@@H](Cc1ccc(O)cc1)C(=O)N[C@@H](CC(N)=O)C(=O)N[C@@H](Cc1c[nH]c2ccccc12)C(=O)N[C@@H](CC(C)C)C(=O)N[C@H](C(=O)N[C@@H](CCCNC(=N)N)C(=O)N[C@@H](CCC(N)=O)C(=O)N[C@@H](CCCNC(=N)N)C(=O)N[C@@H](Cc1ccc(O)cc1)C(N)=O)[C@@H](C)O)C(C)C [Compound 193, N{alpha-4}-(3-methylbutanoyl)-N{epsilon-7}-(6-[(4S)-4-carboxy-4-(17-carboxyheptadecanamido)butanamido]hexanoyl)-[4A,7K,9E,11E,17I,18Q,22V,28Y,30W,31L]-hPYY(4-36)] | 8.47 | < 5.30 | < 5.30 | 8.9 | 9.1 | < 5.30 |
